Data: a melting point compilation (Tetko et al.; mined from patent text by program, amines drawn as free bases though some values may be those of a salt)

Row | SMILES | melting point [°C]
1 | CCCn1nc2c(N)nc3ccccc3c2c1NC | 200 to 201
2 | CC(=O)CCC(=O)N1CC1C#N (centres undefined) | 93 to 94
3 | c1ccc(CON=C2CC(=NOCc3ccccc3)c3ccccc3-c3ccccc32)cc1 | 112
4 | Cc1cc2c3c(cc(C)c2[nH]c1=O)CC(C)(CN=[N+]=[N-])O3 (centres undefined) | 232 to 234
5 | COc1ccc(-c2nc3cc(F)ccc3s2)cc1OC(=O)c1ccc([N+](=O)[O-])cc1 | 198
6 | CSc1cc2c(cc1C(F)(F)F)N(C(=O)Nc1ccc(C(=O)Nc3cccnc3)cc1)CC2 | > 200
7 | O=C(O)c1cc(Cl)ccc1-n1cccc1 | 178
8 | COC(=O)C1=C(C)NC(C)=C(c2nc(C)no2)C1c1cccc(N)c1 (centres undefined) | 248 to 249
9 | O=S1(=O)CC=C(CBr)C1 | 76 to 84
10 | CCCc1ccc(C(=O)OCC)n1Cc1ccc(-c2ccccc2C(=O)O)cc1 | 111 to 115
11 | CC(C)Nc1nc2c(F)c(F)c(F)cc2n1[C@@H]1O[C@H](C)[C@@H](O)[C@H]1O | 148 to 151
12 | CC1CCc2c(N3CCN(C)CC3)c(F)cc3c(=O)c(C(=O)O)cn1c23 (centres undefined) | 262 to 263
13 | CCOCCn1cc2c(C3C(=O)Nc4ccc(Cl)cc43)nc(NCc3cccnc3)nc2n1 (centres undefined) | 294 to 296
14 | C[Si](C)(C)CCOC1OC(CO)C(O)C(O)C1N=[N+]=[N-] (centres undefined) | 158 to 161
15 | Cc1ccc(-c2ccc(-c3nnn[nH]3)cc2)cc1C | 192 to 194
16 | CCCc1ccc(C=NN=Cc2ccc(F)cc2)cc1 | 70.5
17 | CC(C)(Oc1cccc(C(=O)c2ccc(C(F)(F)F)cc2)c1)C(=O)O | 133
18 | CCOC(=O)COc1ccc(C(=O)Nc2cc(OC)ccc2Sc2ccccc2-c2nnn[nH]2)cc1 | 195 to 197
19 | O=C(NNc1ccc(Cl)cc1Cl)C(F)(F)F | 127 to 128
20 | CCCc1c(C(=O)C(C)C)c2ccc(C(N)=O)cc2n1Cc1ccccc1C(N)=O | 273 to 274

Row | SMILES | melting point [°C]
21 | CCOc1cc2cc(OC)c(OC)cc2c(Cc2ccc(OC)c(OC)c2)n1 | 110 to 112
22 | COc1ccc2c(Cc3c(Cl)cncc3Cl)nnc(CN3CCOCC3)c2c1 | 203 to 206
23 | CC(=O)NNCC1CC2c3cccc4c3c(cn4C)CC2N(C)C1 (centres undefined) | 190 to 192
24 | Cn1ccnc1Sc1ccc(Nc2c(C#N)cnc3cc(/C=C/CCO)ccc23)cc1Cl | 205 to 210
25 | CCS(=O)(=O)C(F)(F)C(Cn1cncn1)(OP(=O)(O)O)c1ccc(F)cc1F (single isomer, unassigned; (+)) | 212 to 214
26 | CC(=O)N(N=Nc1cc(C(F)(F)F)ccc1C#N)c1cc(C(F)(F)F)ccc1C#N | 111 to 112
27 | Cc1nnc2n1-c1sccc1C(c1ccccc1[N+](=O)[O-])=NC2 | 260 to 262
28 | O=C1NC(CCO)CO1 (centres undefined) | 90 to 91
29 | CNC(=O)c1cc(-c2ccc(OC)cc2)nn(CC=Cc2ccc(Cl)cc2)c1=O | 184 to 185
30 | CC(CNc1ccc(Cl)cc1[N+](=O)[O-])SC#N (centres undefined) | 69 to 70
31 | O=C(O)CCCCCCCSc1nc(-c2ccccc2)c(-c2ccccc2)[nH]1 | 160 to 162
32 | CCCCCCC/C=C/C(=O)NCCN1CCCC1 | 56 to 58
33 | CC(=O)CSc1nc2ccc(Cc3ccccc3)cc2[nH]1 | 102
34 | CC1(C)C(=O)Oc2ccc3cc([N+](=O)[O-])c(Cn4cncn4)cc3c21 | 183 to 185
35 | CSc1sc(C(=O)O)c2c1-c1nn(C)cc1CC2 | 290 to 291
36 | Cn1nc(-c2c(F)cccc2Cl)nc1C(O)c1ccc(Cl)cc1 (centres undefined) | 141 to 143
37 | Nc1c2c(=O)c3ccccc3c(=O)c2c(N)c2c(=O)n(CCCO)c(=O)c12 | 261 to 262
38 | CCOC=Nc1c(S(C)=O)c(C#N)nn1-c1c(Cl)cc(C(F)(F)F)cc1Cl (centres undefined) | 93 to 95
39 | CCCCc1ccc(NCc2ccc(N(C)C)cc2)cc1 | 60 to 61
40 | CCCCCCCCCCCCCCCCCC(=S)SCC(C)C(=O)N1CCCC1C(=O)O (centres undefined) | 50 to 51

Row | SMILES | melting point [°C]
41 | COc1ccc(N2CCOCC2)c2sc(C(=O)O)nc12 | 99 to 100
42 | Nc1nc(N)c2cc(CCc3ccc(C(=O)N[C@@H](CCC(=O)O)C(=O)O)cc3)cnc2n1 | > 250
43 | CCOC(=O)c1ccc(/C=C(\C)c2cc3c(cc2OC)C(C)(C)CCC3(C)C)cc1 | 97 to 98
44 | CCCc1c(OCCCCCOc2c(C)c(C)c3c(c2C)CC[C@](C)(C(=O)O)O3)ccc(C(C)=O)c1O | 92.5 to 95
45 | C=CC(=O)OCCCCCCOc1ccc(-c2cccc(F)c2F)cc1 | 45.6 to 46.8
46 | CC(=Cc1ccccc1)c1ccc2c(c1)C(C)(C)CCC2(C)C | 83 to 85
47 | CCOC(=O)C1=C(N=CN(C)C)NC(C)=C(C(=O)OC(C)C)C1c1ccccc1Cl (centres undefined) | 138
48 | O=C(Nc1ccc(OCc2ccccn2)nc1)N1CCc2ccc(C(F)(F)F)cc21 | 178 to 179
49 | CC(=S)NCC1CN(c2ccc(-n3cnc(Cn4ccnc4)c3)c(F)c2)C(=O)O1 (centres undefined) | 160 to 162
50 | CCOC(=O)Nc1cscc1C(=O)OC | 52
51 | O=C1Nc2c(C(F)(F)F)cccc2C12COc1cc3c(cc12)OCO3 (centres undefined) | 245 to 248
52 | CCOC(=O)c1ccc(C=C(C)C=O)o1 | 83
53 | COc1ccc(OCC(O)CNC(C)(C)C)c(-c2ccc(=S)[nH]n2)c1 (centres undefined) | 188 to 190
54 | CNC(=S)Nc1ccccc1 | 113
55 | CCC(O)(CC)Cc1ccc(NC(=O)/C=C/c2cnn(C)c2-c2ccc(F)cc2)cc1 | 150 to 151
56 | COc1c(Br)cc(-c2c3ccccc3cc3sc4ccccc4c23)cc1Br | 238 to 240
57 | CC(=O)N(C)C(CCCC(=O)O)C(=O)N(C)c1c(I)cc(I)c(C(=O)O)c1I (centres undefined) | 194 to 204
58 | Cc1nnc(C(C)NC(=O)CC(C)C)c(=O)[nH]1 (centres undefined) | 224 to 226
59 | CCc1nc2c(C)cc(C)nc2n1Cc1ccc(C(=Cc2nnn[nH]2)c2ccccc2Cl)cc1 | 28

Now from value to compound:

Row | melting point [°C] | SMILES
60 | 167 to 171 | CC(C)(C(=O)O)c1ccc(Br)c([N+](=O)[O-])c1
61 | 112 to 115 | CCOC(=O)C[C@@H](NC(=O)/C=C/S(=O)(=O)c1ccccc1)C(=O)OCC
62 | 186 to 188 | CS(=O)(=O)c1ccc(-c2cnn(CC(=O)c3ccc(Cl)cc3)c(=O)c2-c2ccc(F)cc2)cc1
63 | 116 to 123 | CN(C)CCCNC(=O)c1ccccc1NS(=O)(=O)c1cccc(C(F)(F)F)c1
64 | 47.5 to 53 | NC(=O)CCCC1(c2ccccc2)CC(O)=C(SCc2ccccc2)C(=O)O1 (centres undefined)
65 | 90.7 to 92.2 | Nc1ccc(Oc2ccc(C3(c4ccc(Oc5ccc(N)cc5)cc4)CCC(c4ccccc4)CC3)cc2)cc1
66 | 95 to 97 | Cc1ccc(S(=O)(=O)OCC2Cc3ccccc3C2)cc1
67 | 138 to 140 | COC(=O)C(CO)Nc1ccccc1[N+](=O)[O-] (racemic)
68 | 130 | O=[N+]([O-])c1ccc2snc(-c3ccccc3)c2c1
69 | 242 to 244 | Cc1ccc(-c2c(-c3ccc(S(C)(=O)=O)cc3)cnn(-c3ccc(F)cc3)c2=O)cc1
70 | < 70 | Cc1cc(OCCN2CCOCC2)nn1-c1ccc2c(O)cccc2c1
71 | 150 to 152 | CC(C)(C)c1cc(C(c2ccc(C(F)(F)F)cc2)N2CCCCC2)c(O)c(C(C)(C)C)c1 (centres undefined)
72 | 170 to 171 | COc1ccc(-c2ncc(C(=O)O)s2)cc1OC1CCCC1
73 | 64.7 to 67.9 | CSc1cc(C(=O)C(C#N)C(=O)C2CC2)ccc1C (centres undefined)
74 | 261 to 262 | O=C(O)c1cn(C2COC2)c2c(F)c(N3CCCC3)c(F)cc2c1=O
75 | 166 to 168 | COc1ccc2oc(=O)c(S(=O)(=O)Nc3ccc(Br)cc3)cc2c1
76 | 202 to 204 | CC(C)(C)C(=O)Nc1ccc2cc3c(cc2c1)CCCC3
77 | 150 to 154 | CC1CCN(C(=O)C2Cc3ccccc3N2c2ccc(=O)n(C)n2)C1 (centres undefined)
78 | 160 to 167 | CS(=O)(=O)Nc1ccc(-c2ccc(S(=O)(=O)n3ccc(C=CC(=O)NO)c3)cc2)cc1
79 | 142 to 146 | COc1ccc2[nH]c(S(=O)Cc3nccc(N4CCOCC4)c3F)nc2c1 (centres undefined)

Row | melting point [°C] | SMILES
80 | 214 to 215 | Cc1c(N2CCc3ccccc3C2)c(F)cn2c(=O)c(C(=O)O)cc(C3CC3)c12
81 | 122 to 124 | Cc1[nH]c2ccc(CCOS(C)(=O)=O)cc2c1C(=O)OCc1ccccc1
82 | > 325 | O=c1c2cc(O)ccc2[nH]c2c([N+](=O)[O-])ccc(Cl)c12
83 | 118 to 119 | O=C(Cc1ccc2ccn(C3CCN(CCc4ccc(F)cc4)CC3)c2c1)NCC1OCCO1
84 | 90.5 to 91 | COc1ccc(C(=O)N2CCCC2=O)cc1OC(=O)c1ccccc1
85 | 202 to 204 | COC(=O)C1=Cc2cc(-c3ccc(N4CCCCC4)cc3)ccc2S(=O)(=O)CC1
86 | 164 to 167 | CCCS(=O)(=O)Nc1c(C(=O)c2ccccc2)[nH]c2cc(Cl)ccc12
87 | 110 to 112 | Cc1ccc2[nH]cc(C3=C(c4cn(C)c5ccc(C)cc45)C(=O)N(C)C3=O)c2c1
88 | 124 to 125 | OC(c1ccc(F)cc1)(c1ccc(F)cc1)C1SCSCS1
89 | 176 to 179 | CCCCOc1cc(CN)cc(S(N)(=O)=O)c1Cc1ccccc1
90 | 174 to 178 | COc1cc(N2CCN(C)CC2)ccc1-c1cnn2c(N)c(-c3cccc(Cl)c3)c(C)nc12
91 | 326 | Cc1cc(-c2ccc(C(F)(F)F)cc2)cn2c(-c3nc(-c4cccc(S(N)(=O)=O)c4)no3)cnc12
92 | 164 to 166 | CC(=O)Nc1nc2ccc(OC(C)=O)cc2n1S(=O)(=O)N(C)C
93 | 158 | NS(=O)(=O)c1ccc(C2CCCC2)cc1
94 | 206 to 207 | Cc1ccc(S(=O)(=O)N2CCC(c3ccc(O)cc3O)CC2)cc1
95 | 202 to 203 | CC1CN(CC(=O)c2ccccc2)c2nc(-c3ccncc3)cc(=O)n2C1 (centres undefined)
96 | 123 | Cc1ccc(C(O)CN2CCNC2=S)cc1 (centres undefined)
97 | 171 to 174 | COc1cn(-c2cc(N3CCCC3=O)ccc2F)nc(-c2ccnn2-c2ccccc2)c1=O
98 | 228 | O=[N+]([O-])c1ccc2nc(Cl)nc(-c3ccccc3Cl)c2c1
99 | 161 | Fc1ccc2c(c1)C(=C1CCNCC1)c1ccccc1C=C2
